# Test results taken from ChEMBL document CHEMBL4138122, “Azaphenothiazines - promising phenothiazine derivatives. An insight into nomenclature, synthesis, structure elucidation and biological properties” (Eur J Med Chem, 2017).
# Experiments:
# Trachea = experiment: Inhibition of egg albumin antigen challenge-induced contraction response in methacholine-primed guinea pig trachea at 10 ug/ml; assay type: functional; details: Cavia porcellus
# Rattus norvegicus = experiment: Inhibition of PAF-induced hyperalgesia in Sprague-Dawley rat at 10 mg/kg, po dosed 30 mins prior to PAF challenge and measured 1 to 4 hours post PAF challenge; assay type: functional
# [1] = Inhibition of LTB4 formation in rat polymorphonuclear leukocytes preincubated for 2 mins followed by A-23187 addition after 4 mins; assay type: functional, cell-based
# Hs-578T = experiment: Cytotoxicity against human Hs578T cells assessed as cell growth inhibition after 48 hrs by SRB assay; assay type: functional, cell-based
# PC-3 [2] = experiment: Cytotoxicity against human PC3 cells assessed as cell growth inhibition after 48 hrs by SRB assay; assay type: functional, cell-based; details: PC-3, 48 h
# HOP-62 = experiment: Cytotoxicity against human HOP62 cells assessed as cell growth inhibition after 48 hrs by SRB assay; assay type: functional, cell-based; details: HOP-62, 48 h
# RXF 393 = experiment: Cytotoxicity against human RXF393 cells assessed as cell growth inhibition after 48 hrs by SRB assay; assay type: functional, cell-based; details: RXF 393, 48 h
# PBMC = experiment: Inhibition of anti-CD3 induced human PBMC proliferation at 1 ug/ml; assay type: functional
# SNB-19 = experiment: Cytotoxicity against human SNB19 cells assessed as cell growth inhibition after 48 hrs by SRB assay; assay type: functional, cell-based; details: SNB-19, 48 h
# HL-60 = experiment: Cytotoxicity against human HL60 cells assessed as cell growth inhibition after 48 hrs by SRB assay; assay type: functional, cell-based; details: HL-60, 48 h
# OVCAR-8 = experiment: Cytotoxicity against human OVCAR8 cells assessed as cell growth inhibition after 48 hrs by SRB assay; assay type: functional, cell-based; details: OVCAR-8, 48 h
# SF-539 = experiment: Cytotoxicity against human SF539 cells assessed as cell growth inhibition after 48 hrs by SRB assay; assay type: functional, cell-based; details: SF-539, 48 h
# 786-0 = experiment: Cytotoxicity against human 786-O cells assessed as cell growth inhibition after 48 hrs by SRB assay; assay type: functional, cell-based; details: 786-0, 48 h
# ACHN = experiment: Cytotoxicity against human ACHN cells assessed as cell growth inhibition after 48 hrs by SRB assay; assay type: functional, cell-based
# HCT-116 [3] = experiment: Cytotoxicity against human HCT116 cells assessed as cell growth inhibition after 48 hrs by SRB assay; assay type: functional, cell-based; details: HCT-116, 48 h
# HOP-92 = experiment: Cytotoxicity against human HOP92 cells assessed as cell growth inhibition after 48 hrs by SRB assay; assay type: functional, cell-based; details: HOP-92, 48 h
# M14 = experiment: Cytotoxicity against human M14 cells assessed as cell growth inhibition after 48 hrs by SRB assay; assay type: functional, cell-based; details: M14, 48 h
# Liver = experiment: Antioxidant activity in rat liver microsomal membranes assessed as inhibition of Fe(2+)/ascorbate-induced lipid peroxidation; assay type: functional, microsomes, microsome
# COLO 205 = experiment: Cytotoxicity against human COLO205 cells assessed as cell growth inhibition after 48 hrs by SRB assay; assay type: functional, cell-based; details: COLO 205, 48 h
# EKVX = experiment: Cytotoxicity against human EKVX cells assessed as cell growth inhibition at 2.1 ug/ml after 48 hrs by SRB assay; assay type: functional, cell-based
# NCI-H460 = experiment: Cytotoxicity against human NCI-H460 cells assessed as cell growth inhibition after 48 hrs by SRB assay; assay type: functional, cell-based; details: NCI-H460, 48 h
# SR = experiment: Cytotoxicity against human SR cells assessed as cell growth inhibition after 48 hrs by SRB assay; assay type: functional, cell-based
# SK-MEL-5 = experiment: Cytotoxicity against human SK-MEL-5 cells assessed as cell growth inhibition after 48 hrs by SRB assay; assay type: functional, cell-based; details: SK-MEL-5, 48 h
# OVCAR-3 = experiment: Cytotoxicity against human OVCAR3 cells assessed as cell growth inhibition after 48 hrs by SRB assay; assay type: functional, cell-based; details: OVCAR-3, 48 h
# SF-268 = experiment: Cytotoxicity against human SF268 cells assessed as cell growth inhibition after 48 hrs by SRB assay; assay type: functional, cell-based; details: SF-268, 48 h
# Malme-3M = experiment: Cytotoxicity against human MALME-3M cells assessed as cell growth inhibition after 48 hrs by SRB assay; assay type: functional, cell-based
# MCF7 [4] = experiment: Cytotoxicity against human MCF7 cells assessed as cell growth inhibition after 48 hrs by SRB assay; assay type: functional, cell-based; details: MCF7, 48 h
# SK-MEL-2 = experiment: Growth inhibition of human SK-MEL-2 cells at 10 uM; assay type: functional; details: read-out: GI
# UO-31 [5] = experiment: Growth inhibition of human UO31 cells at 10 uM; assay type: functional; details: read-out: GI
# OVCAR-4 = experiment: Cytotoxicity against human OVCAR4 cells assessed as cell growth inhibition after 48 hrs by SRB assay; assay type: functional, cell-based; details: OVCAR-4, 48 h
# IGROV-1 = experiment: Cytotoxicity against human IGROV1 cells assessed as cell growth inhibition after 48 hrs by SRB assay; assay type: functional, cell-based; details: IGROV-1, 48 h
# SNB-75 = experiment: Cytotoxicity against human SNB75 cells assessed as cell growth inhibition after 48 hrs by SRB assay; assay type: functional, cell-based; details: SNB-75, 48 h
# SF-295 = experiment: Cytotoxicity against human SF295 cells assessed as cell growth inhibition after 48 hrs by SRB assay; assay type: functional, cell-based; details: SF-295, 48 h
# CCRF-CEM = experiment: Cytotoxicity against human CCRF-CEM cells assessed as cell growth inhibition after 48 hrs by SRB assay; assay type: functional, cell-based
# OVCAR-5 = experiment: Cytotoxicity against human OVCAR5 cells assessed as cell growth inhibition after 48 hrs by SRB assay; assay type: functional, cell-based; details: OVCAR-5, 48 h
# MOLT-4 = experiment: Cytotoxicity against human MOLT4 cells assessed as cell growth inhibition after 48 hrs by SRB assay; assay type: functional, cell-based; details: MOLT-4, 48 h
# UO-31 [6] = experiment: Cytotoxicity against human UO31 cells assessed as cell growth inhibition at 3.2 ug/ml after 48 hrs by SRB assay; assay type: functional; details: UO-31, 48 h, read-out: GI
# MCF7 [7] = experiment: Growth inhibition of human MCF7 cells at 10 uM; assay type: functional; details: read-out: GI
# T47D = experiment: Growth inhibition of human T47D cells at 10 uM; assay type: functional; details: read-out: GI
# [8] = test system: Mycobacterium tuberculosis; experiment: Antitubercular activity against Mycobacterium tuberculosis; assay type: functional
# UO-31 [9] = experiment: Cytotoxicity against human UO31 cells assessed as cell growth inhibition at 2.1 ug/ml after 48 hrs by SRB assay; assay type: functional; details: UO-31, 48 h, read-out: GI
# [10] = test system: Mycobacterium tuberculosis; experiment: Antitubercular activity against Mycobacterium tuberculosis H37Rv assessed as inhibition of bacterial growth at 6.25 ug/ml; assay type: functional; details: read-out: GI
# [11] = test system: Mycobacterium tuberculosis; experiment: Antitubercular activity against Mycobacterium tuberculosis H37Rv; assay type: functional
# Aspergillus niger = experiment: Antifungal activity against Aspergillus niger by CLSI protocol based method; assay type: functional
# Escherichia coli = experiment: Antibacterial activity against Escherichia coli by CLSI protocol based method; assay type: functional
# HepG2 = experiment: cells; details: Homo sapiens, HepG2, 72 h
# Description: Cytotoxicity against human HepG2 cells assessed as inhibition of cell growth after 72 hrs by SRB assay
# PC-3 [12] = experiment: Cytotoxicity against human PC3 cells assessed as inhibition of cell growth after 72 hrs by SRB assay; assay type: functional, cell-based; details: PC-3, 72 h
# MCF7 [13] = experiment: Cytotoxicity against human MCF7 cells assessed as inhibition of cell growth after 72 hrs by SRB assay; assay type: functional, cell-based; details: MCF7, 72 h
# HCT-116 [14] = experiment: Cytotoxicity against human HCT116 cells assessed as inhibition of cell growth after 72 hrs by SRB assay; assay type: functional, cell-based; details: HCT-116, 72 h
smiles,measurement,setting,value
c1ccc2c(c1)Nc1nccnc1S2,inhibition at 10 µg/mL,Trachea,85%
same,inhibition in vivo at 10 mg/kg,Rattus norvegicus,70%
same,IC50,[1],1 to 5 µg/mL
c1cc2c(cn1)Nc1ccncc1S2,IC50,Hs-578T,5.9 µg/mL
same,IC50,PC-3 [2],8.4 µg/mL
same,IC50,HOP-62,0.3 µg/mL
same,IC50,RXF 393,3.1 µg/mL
same,inhibition at 1 µg/mL,PBMC,72%
same,IC50,SNB-19,6.8 µg/mL
same,IC50,HL-60,4.1 µg/mL
same,IC50,OVCAR-8,7.1 µg/mL
same,IC50,SF-539,6.8 µg/mL
same,IC50,786-0,3.9 µg/mL
same,IC50,ACHN,5.4 µg/mL
same,IC50,HCT-116 [3],3.6 µg/mL
same,IC50,HOP-92,1.7 µg/mL
same,IC50,M14,6.5 µg/mL
same,IC50,Liver,64000 nM
same,IC50,COLO 205,2.4 µg/mL
[Cl-].c1ccc2nc3c(cc2c1)Sc1cc2ccccc2[n+]2c1N3CC2,IC50,EKVX,7.6 µg/mL
same,IC50,NCI-H460,7.4 µg/mL
same,IC50,PC-3 [2],10 µg/mL
same,IC50,SR,4.9 µg/mL
same,IC50,SK-MEL-5,1.5 µg/mL
same,IC50,RXF 393,5 µg/mL
same,IC50,OVCAR-3,7.8 µg/mL
same,IC50,SF-268,8.5 µg/mL
same,IC50,Malme-3M,1.3 µg/mL
same,IC50,MCF7 [4],3.2 µg/mL
same,IC50,COLO 205,1.3 µg/mL
c1ccc(N2c3nc4ccccc4cc3Sc3cc4ccccc4nc32)nc1,inhibition of growth at 10 µM,SK-MEL-2,61%
same,inhibition of growth at 10 µM,UO-31 [5],57 to 73%
O=C(NCCCl)NCCN1c2nc3ccccc3cc2Sc2cc3ccccc3nc21,IC50,OVCAR-4,250 to 1000 nM
same,IC50,IGROV-1,250 to 1000 nM
same,IC50,NCI-H460,250 to 1000 nM
same,IC50,PC-3 [2],250 to 1000 nM
same,IC50,SNB-75,250 to 1000 nM
same,IC50,SK-MEL-5,87 nM
same,IC50,SF-295,250 to 1000 nM
same,IC50,CCRF-CEM,250 to 1000 nM
same,IC50,786-0,250 to 1000 nM
same,IC50,HCT-116 [3],250 to 1000 nM
same,IC50,HOP-92,250 to 1000 nM
same,IC50,OVCAR-5,250 to 1000 nM
same,IC50,MOLT-4,250 to 1000 nM
O=[N+]([O-])c1ccc(N2c3ccncc3Sc3ccncc32)cc1,inhibition of growth at 3.2 µg/mL,UO-31 [6],44%
CCCCN1c2nc3ccccc3cc2Sc2cc3ccccc3nc21,inhibition of growth at 10 µM,MCF7 [7],93%
same,inhibition of growth at 10 µM,T47D,86%
same,inhibition of growth at 10 µM,UO-31 [5],78%
CCN(c1cnc2sc3c4c(=O)c5c(O)c(C)c6c(c5c-3nc2c1)C(=O)[C@@](C)(O/C=C/[C@H](OC)[C@@H](C)[C@@H](OC(C)=O)[C@H](C)[C@H](O)[C@H](C)[C@@H](O)[C@@H](C)/C=C/C=C(/C)C(=O)N4)O6)C(C)C,MIC,[8],0.005 µg/mL
CN1c2ccncc2Sc2ccncc21,inhibition of growth at 2.1 µg/mL,EKVX; read-out: GI,51%
same,inhibition of growth at 2.1 µg/mL,UO-31 [9],60%
O=c1[nH]c2c(Cl)ccc(Cl)c2c2c1Sc1cc(Cl)ccc1N2,inhibition of growth at 6.25 µg/mL,[10],67%
same,MIC,[11],> 6.25 µg/mL
CCSc1ncc2c(n1)N=c1c(Cl)c3c(c(Cl)c1S2)=Nc1nc(SCC)nc(O)c1S3,MIC,Aspergillus niger,138 µg/mL
same,MIC,Escherichia coli,169 µg/mL
COc1ccc(-c2c3c(N)c4c(nc3nc3[nH]nc(-c5ccccc5)c23)Sc2ccccc2N4)cc1,IC50,HepG2,19100 nM
same,IC50,PC-3 [12],34500 to 36500 nM
same,IC50,MCF7 [13],34500 to 36500 nM
same,IC50,HCT-116 [14],34500 to 36500 nM
